Measured values published in patent US20200071675A1, “METHOD FOR PRODUCING ENDOTHELIAL CELLS” (TAKARA BIO INC., priority 2016, published 2020).
Read-outs that look alike come from different tables or passages of the source.

Experiments:
[1] = tested on: vascular endothelial cells induced from human iPS cells (ChiPSC12 strain); experiment: Freezing and thawing of vascular endothelial cells induced with RepSox; conditions: cells induced with 20 μM RepSox, collected Days 18 to 22, stored in liquid nitrogen for 3 days, thawed at 37° C.
Method: The collected cells were washed, and suspended in Stem Cell Banker (TAKARA BIO INC.) so as to have a cell concentration of 3×10^6/mL, and 1 mL of each of the suspension was dispensed to vials. The vials were placed in a frozen-treated vessel (BICELL, Nihon Freezer Co., Ltd.), and the cells were subjected to slow freezing in a freezing storage chamber held at a temperature of −80° C. Thereafter, each vial was transferred to a liquid nitrogen, and stored for 3 days.
The frozen cells were warmed for 2 minutes and 30 seconds with a water bath warmed to 37° C., to thaw the cells. […] An entire amount of the remaining cells was added to a tube to which 8 mL of a medium for proliferating endothelial cells had been dispensed in advance. Thereafter, a vial was rinsed with 1 mL of a medium for proliferating endothelial cells, and a rinsed medium was added to the tube. The tube was centrifuged at 200×g for 5 minutes, and the supernatant was then discarded. The cells were suspended in a fresh medium for culturing endothelial cells, and the cells were seeded at a density of 2×10^4 cells/cm^2 to a culture vessel. […]
The cells were collected on a seventh day after thawing the cells, and the cell numbers were counted. At the same time, the CD31-positive cell ratio, an endothelial cell marker, was measured with a flow cytometry.

[2] = tested on: KDR-positive vascular endothelial progenitor cells from human iPS cells (ChiPSC12 strain); experiment: CD31-positive cell ratio (endothelial cell marker) by flow cytometry; type: cell-based
Method: Human iPS cells ([…]) were cultured in DEF-CS medium (Cellartis) in accordance with the instructions attached to the medium. In order to efficiently induce differentiation of mesodermal cells, iPS cells were coated with Matrigel (Matrigel Sandwich method) in accordance with the following procedures. […] Here, SB431542, another TGF-β inhibitor, was used as a negative control. The cells were collected at Day 11, and the cell numbers were counted.

[3] = tested on: KDR-positive vascular endothelial progenitor cells from human iPS cells (ChiPSC12 strain)
Method: Human iPS cells (ChiPSC12 strain) were cultured in DEF-CS medium in accordance with the instructions attached to the medium.
TrypLE(trademark) Select was added to iPS cells that had been subcultured, and the cells were incubated at 37° C. for 3 to 7 minutes. The detached cells were collected as a single cell by pipetting, and the cell numbers were counted. […] Thereafter, the medium was exchanged with DEF-CS medium added with Matrigel diluted to 1:60, and the cells were cultured for additional 16 to 24 hours, thereby coating an upper layer of the cells with Matrigel.
The Matrigel-coated iPS cells obtained were differentiated into mesodermal cells in accordance with the following procedures. First, a medium of the Matrigel-coated iPS cells was exchanged with RPMI 1640 medium added with 100 ng/mL activin A, 2 mM GlutaMAX(trademark), and B27 supplement (without containing insulin) (this time point being defined as the beginning of the induction of differentiation=Day 0), and the cells were cultured for 24 hours (Day 1). Next, the medium was exchanged with RPMI 1640 medium added with 10 ng/mL hBMP4, 10 ng/mL hbFGF, 2 mM GlutaMAX, and B27 supplement, and the cells were cultured for 3 days (Day 4). Thereafter, the medium was exchanged with RPMI 1640 medium added with 100 ng/mL VEGF, 2 mM GlutaMAX, and B27 supplement, and the cells were cultured overnight (Day 5).
KDR-positive cells were separated from the cultured cells at Day 5 by using the magnetic-activated cell sorting, thereby isolating vascular endothelial progenitor cells. In order to separate the KDR-positive cells, an anti-KDR antibody to which a PE fluorescent label was bound was used as a primary antibody for labeling cells, and cells labeled with the primary antibody were collected with magnetic beads embedding anti-PE antibodies. […] Further, the medium at Day 6 was exchanged with RPMI 1640 medium added with B27 supplement, 50 units/mL penicillin, 50 μg/mL streptomycin, 2 mM GlutaMAX, and 100 ng/mL VEGF, and the cells were cultured for 2 days (Day 8).
Here, CD31 is a marker of endothelial cells, and CD34 is a marker of hematopoietic stems cells or endothelial progenitor cells. In addition, CD34 is also expressed in juvenile endothelial cells.

[4] = tested on: KDR-positive vascular endothelial progenitor cells from human iPS cells (ChiPSC12 strain); experiment: Cell numbers during differentiation of iPS cell-derived vascular endothelial progenitor cells cultured with a TGF-β inhibitor (Days 8 to 11); type: cell-based; conditions: for Cell Numbers (Day 19) / Cell Numbers (Day 30): cell numbers at Day 8 defined as 1

SMILES	CD31-Positive (Day 19) ([2]; 10 μM inhibitor Days 8 to 11) [%]	CD31-Positive (Day 30) ([2]; 10 μM inhibitor Days 8 to 11) [%]	CD31-Positive (Day 19) ([2]; 20 μM inhibitor Days 8 to 11) [%]	CD31-Positive (Day 30) ([2]; 20 μM inhibitor Days 8 to 11) [%]	Cell Numbers (Day 19) ([4]; 10 μM inhibitor Days 8 to 11)	Cell Numbers (Day 30) ([4]; 10 μM inhibitor Days 8 to 11)	Cell Numbers (Day 19) ([4]; 20 μM inhibitor Days 8 to 11)	Cell Numbers (Day 30) ([4]; 20 μM inhibitor Days 8 to 11)	further results
Cc1cccc(-c2[nH]ncc2-c2ccc3ncccc3n2)n1 [RepSox]	99.7	99.0	99.8	99.1	3.5	9.1	3.5	3.1	cell viability after thawing [1]: 87%; CD31-Positive (Day 19) ([2]; 3 μM inhibitor Days 8 to 11): 98.9%; CD31-Positive (Day 30) ([2]; 3 μM inhibitor Days 8 to 11): 87.0%; CD31-positive ratios (Day 30) ([2]; text summary: 'in both the media containing 3 μM RepSox'): ≥ 87%; CD31+/CD34+ (Day 13) ([3]; 3 μM RepSox Day 8 to 11): 96.9%; CD31+/CD34+ (Day 18) ([3]; 3 μM RepSox Day 8 to 11): 93.3%; CD31+/CD34+ (Day 13) ([3]; 10 μM RepSox Day 8 to 11): 96.1%; CD31+/CD34+ (Day 18) ([3]; 10 μM RepSox Day 8 to 11): 94.4%; CD31+/CD34+ (Day 13) ([3]; 20 μM RepSox Day 8 to 11): 95.8%; CD31+/CD34+ (Day 18) ([3]; 20 μM RepSox Day 8 to 11): 96.1%; CD31+/CD34+ cells at Day 13 ([3]; regardless of the concentrations of RepSox (3, 10, 20 μM)): ≥ 95%; Cell Numbers (Day 19) ([4]; 3 μM inhibitor Days 8 to 11): 3.1; Cell Numbers (Day 30) ([4]; 3 μM inhibitor Days 8 to 11): 2.5; cell proliferation rates at Day 30 ([4]; text summary: 'in both the media containing 3 μM RepSox', relative to Day 8 = 1): ≥ 2.5
NC(=O)c1ccc(-c2nc(-c3ccc4c(c3)OCO4)c(-c3ccccn3)[nH]2)cc1 [SB431542]	97.7	89.4	98.7	33.0	1.3	0.9	2.3	5.1	–
